These results are taken from EP0962457B1, “Piperidones as tachykinin antagonists” (Pfizer Limited, priority 1998, dated 1999).

The target of one data set is T1, human NK2 receptor (Homo sapiens, UniProt P21452).
T1 construct: expressed in transfected cells; host or cells: Chinese hamster ovary cells (membranes)
T1 sequence (P21452 1-398): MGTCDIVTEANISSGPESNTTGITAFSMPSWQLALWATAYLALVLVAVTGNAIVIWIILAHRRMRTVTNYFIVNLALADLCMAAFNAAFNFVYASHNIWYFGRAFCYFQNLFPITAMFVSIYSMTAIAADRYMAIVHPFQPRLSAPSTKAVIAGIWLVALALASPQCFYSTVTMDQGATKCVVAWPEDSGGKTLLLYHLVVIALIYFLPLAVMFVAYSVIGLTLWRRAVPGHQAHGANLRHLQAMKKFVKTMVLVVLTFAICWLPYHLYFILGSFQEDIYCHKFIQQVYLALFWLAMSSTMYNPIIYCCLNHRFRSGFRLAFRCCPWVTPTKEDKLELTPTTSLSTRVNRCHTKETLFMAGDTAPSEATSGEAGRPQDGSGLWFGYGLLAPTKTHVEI
The data set is described as follows: NK2 receptor affinity: competition with [3H]-NKA for binding to membranes of Chinese hamster ovary cells expressing the cloned human NK2 receptor. As to conditions: CHO cell membranes, 90 min, 25°C, read-out: NK2 receptor affinity (pKi) (converted). Here is the method: The affinity of the compounds of formula (I) and their salts for the human NK2 receptor can be tested in vitro by testing their ability to compete with [^3H]-NKA (neurokinin A) for binding to membranes prepared from Chinese hamster ovary cells expressing the cloned human NK2 receptor. In this method, washed Chinese hamster ovary cell membranes are prepared as described for the previous method where IM9 cells are used instead. The membranes are incubated (90 min, 25°C) with [^3H]-NKA and with a range of concentrations of the test compound. Non-specific binding was determined in the presence of 10µM NKA.
The affinity of the compounds of Tables 1 and 2 for the human NK2 receptor was tested in vitro by testing their ability to compete with [^3H]-NKA for binding to membranes prepared from Chinese hamster ovary cells expressing the cloned human NK2 receptor using the method set out on page 9.
(§1) In Tables 1 and 2 the "pKi" measurement is the negative logarithm of the molar affinity of the test compound for the receptor as determined in radioligand binding assays using standard protocols. A 1.0 log. unit difference in either the NK2 or NK3 receptor affinity figures corresponds to a 10-fold activity difference.

Data set [1] in a line: In vitro metabolic stability: disappearance half-life in human liver microsomes (HLM/37). To be noted: human liver microsomes HLM/37, test compound 1µM, 37°C, 60 minutes, NADPH, read-out: Metabolic stability (t½). It is filed as in vitro ADME. Here is the method:
The in vitro metabolic stability of the compounds of the formula (I) and their salts can be tested by incubating samples for 1 hour at 37°C in the presence of a "moderate activity" (re. concentrations of cytochrome p450 enzymes present) human liver microsomal preparation (prepared from human liver homogenates). The samples were analysed by HPLC at regular intervals during this one hour period and the half-life (t½) determined (in minutes).
The metabolic stability of the compounds of Tables 1 and 2 was determined in vitro by the method described on page 10 according to the following experimental protocol.
Transplant-quality human liver tissue was obtained from the International Institute for the Advancement of Medicine (Exton, PA). The donors ranged in age from 26 to 65 years old and included 3 males and 3 females. Hepatic microsomes were prepared from individual human livers by the process of differential centrifugation. Briefly, the liver tissue was homogenised in 50mM Tris HCI (pH 7.4) containing 250mM sucrose and then centrifuged at 9,000G for 20 minutes to remove the cell debris and nuclear fraction. The supernatant layer was removed and further centrifuged at 105,000G for 60 minutes to pellet the microsomal fraction. […] The cytochrome P450 content was determined using the method of Omura, T., Sato, R., J. Biol. Chem., 239, 2379-2385 (1964) and the protein concentration was determined using the method of Lowry et al., J. Biol. Chem., 193, 265-275 (1951), with bovine serum albumin as the protein standard.
The metabolic activities of the 6 major drug metabolising cytochrome P450 enzymes were determined for HLM/37 and compared to values obtained from a bank of individual human livers (n = 19). […]
Aliquots (100µl) were removed from the incubation at 0, 3, 5, 10, 15, 20, 30, 45 and 60 minutes after the addition of NADPH. […] After centrifugation 150µl aliquots were removed and 120µl of each of these analysed by HPLC on a Hypersil HS C18 5µ column (50x4.6mm) with a mobile phase of methanol:water (90:10, by volume) containing 2mM ammonium acetate. […]
(In general: Liver microsomes are a subcellular fraction often used to study metabolism.)

For another data set, the target named is T2, NK3 receptor (Cavia porcellus, UniProt P30098).
T2 construct: membranes from guinea pig cortex; from tissue; host or cells: guinea pig cortex membranes
T2 sequence (P30098 1-440): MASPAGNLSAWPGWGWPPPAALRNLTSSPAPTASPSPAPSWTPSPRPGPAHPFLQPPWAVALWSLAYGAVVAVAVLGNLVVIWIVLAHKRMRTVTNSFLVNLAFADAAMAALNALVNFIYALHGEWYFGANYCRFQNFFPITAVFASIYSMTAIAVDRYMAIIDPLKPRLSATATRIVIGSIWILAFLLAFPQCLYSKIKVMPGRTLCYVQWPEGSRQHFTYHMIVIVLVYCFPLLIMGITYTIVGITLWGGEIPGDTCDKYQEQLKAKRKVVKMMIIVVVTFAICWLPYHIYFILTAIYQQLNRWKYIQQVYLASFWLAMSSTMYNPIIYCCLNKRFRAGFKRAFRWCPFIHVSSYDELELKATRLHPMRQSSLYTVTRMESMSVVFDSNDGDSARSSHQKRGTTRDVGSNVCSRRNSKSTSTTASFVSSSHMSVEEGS
The data set can be described thus: NK3 receptor affinity: inhibition of [3H]-senktide binding to membranes from guinea pig cortex. To be noted: read-out: NK3 receptor affinity (pKi) (converted). Here is the method:
The compounds of the formula (I) and their salts can be tested for NK3 receptor affinity, in vitro, by testing their ability to inhibit [^3H]-senktide binding to membranes from guinea pig cortex using the method of Guard, et al, Br.J.Pharmacol., 99, 767-773 (1990).
The compounds of Tables 1 and 2 were tested for NK3 receptor affinity, in vitro, by the method described on pages 9 and 10 by testing their ability to inhibit [^3H]-senktide binding to membranes from guinea pig cortex using the method of Guard, et al, Br.J.Pharmacol., 99, 767-773 (1990).
as §1

SMILES strings stand for the structures. Read-outs that look alike come from different tables or passages of the source. Bounds are passed on as bounds.

As to `CS(=O)(=O)N1CCC(C2CN(CC[C@]3(c4ccc(Cl)c(Cl)c4)CCC(=O)N(CC4CC4)C3)C2)CC1` [Example 1, (5S)-1-(Cyclopropylmethyl)-5-(3,4-dichlorophenyl)-5-(2-[3-[1-(methylsulfonyl)-4-piperidinyl]-1-azetanyl]ethyl)tetrahydro-2(1H)-pyridinone], the Ki on human NK2 receptor is 3.98 nM. Besides, the half-life at 1 µM in data set [1] (pH 7.4) came out at 1.25 h.
Turning to `CS(=O)(=O)N1CCC(C2CN(CC[C@]3(c4ccc(Cl)c(F)c4)CCC(=O)N(CC4CC4)C3)C2)CC1` [Example 2], the Ki at human NK2 receptor is 2.51 nM. For the same compound, the half-life at 1 µM in data set [1] was more than 2 h.
For the compound `CS(=O)(=O)N1CCC(C2CN(CC[C@]3(c4ccc(Cl)c(Cl)c4)CCC(=O)N(CCC4CC4)C3)C2)CC1` [Example 3], the half-life at 1 µM in data set [1] was 0.45 h.
`CS(=O)(=O)N1CCC(C2CN(CC[C@]3(c4ccc(Cl)c(Cl)c4)CCC(=O)N(Cc4ccccc4)C3)C2)CC1` [Example 4]: at human NK2 receptor, the Ki was 1.26 nM.
In the case of `CS(=O)(=O)N1CCC(C2CN(CC[C@]3(c4ccc(Cl)c(Cl)c4)CCC(=O)N(C4CCCC4)C3)C2)CC1` [Example 5], the Ki at human NK2 receptor is 1 nM; on NK3 receptor, 25.1 nM.
Consider `CS(=O)(=O)N1CCC(C2CN(CC[C@]3(c4ccc(Cl)c(Cl)c4)CCC(=O)N(CC4CCCCC4)C3)C2)CC1` [Example 6], for which the figures for the Ki at human NK2 receptor and at NK3 receptor were 20 nM and 5.01 nM, respectively.
For the compound `CS(=O)(=O)N1CCC(C2CN(CC[C@]3(c4ccc(F)c(F)c4)CCC(=O)N(C4CCCCC4)C3)C2)CC1` [Example 7], the Ki at human NK2 receptor was 3.16 nM.
Same read-out and setting: to `CCS(=O)(=O)N1CCC(C2CN(CC[C@]3(c4ccc(Cl)c(Cl)c4)CCC(=O)N(CC4CC4)C3)C2)CC1` [Example 8, (5S)-1-(Cyclopropylmethyl)-5-(3,4-dichlorophenyl)-5-(2-[3-[1-(ethylsulfonyl)-4-piperidinyl]-1-azetanyl]ethyl)tetrahydro-2(1H)-pyridinone] belongs 6.31 nM.
